# Assays:
# [1] = tested on: 6E10+ amyloid-beta plaques; test: Immunohistochemistry of 6E10+ amyloid-beta plaques; assay type: in vivo, mice
# Excerpt: (§1) FIG. 14A is a representative image of the H3K9me3 signal across cortical layers. FIG. 14B is a representative image comparing ETP69 treated and DMSO control brains. […] FIG. 14D depicts immunohistochemistry of 6E10+ amyloid-beta plaques and GFAP+ astrogliosis in coronal sections of AD+ mice treated with ETP69 or DMSO.
# [2] = tested on: global proteome; test: Global proteome mass spectrometry analysis of brains; assay type: in vivo, mice
# Excerpt: Overall, the experiments in these examples from multiple cohorts of 14- and 18-month-old murine models of AD (AD+ mice) and age/gender-matched control mice provide support that by inhibiting the enzyme SUV39H1 that regulates H3K9me3 via ETP69 compound (AKA NT1721), the chromatin state of subjects may be altered, and memory and synaptic plasticity may be restored in aging and AD brains. The therapeutic usefulness of ETP69 has been shown in the experiments described in these examples, in both aged WT mice and the well-established transgenic mouse models of AD (APPSWE/PS1ΔE9, AD+ mice), following a single (S), a boost (B), or once a week repeated (R) i.p. injections of ETP69. […] Additionally, in investigation of whole proteome profiles by mass spectrometry identified some mechanisms of action for ETP69 in the aged WT and AD+ mice.
# (§2) FIGS. 19A, 19B, and 20 include global proteome data from a mass spectrometry analysis. […] Some of these proteins, such as HPX, may be involved in anti-oxidative-stress or anti-inflammatory pathways.
# [3] = tested on: ADtg mice; test: Visual X maze (visual stimuli X-maze), color mode; assay type: in vivo
# Procedure: (§3) Wildtype and ADtg mice (18 months, males and females) were treated with ETP69 or vehicle (DMSO-saline) to test the effects of ETP69 in improving cognition in a mouse model of Alzheimer's disease. On day 1, mice were treated with an injection of 10 mg/kg ETP69 of vehicle. Then starting on day 2, mice were tested in various behavioral tests, including Y-maze, visual test alternation, Open Field-Barnes Maze, and/or fear conditioning. On either day 4 or day 19 mice were sacrificed, and tissues analyzed for histone trimethylation levels, A-beta levels, immunohistochemistry (GFAP, IGF1), Spine count (Golgi-Cox staining), —Neurotrophic support and synaptic markers.
# The results of the Koronyo's Visual X Maze (color) indicate visual-cognitive memory and learning.
# (§4) The effects of single and repeated ETP69 injections in mice were tested. The experimental timeline is depicted in FIG. 8. Three parallel injection conditions were tested: a single ETP69 condition, a boosted ETP69 injection, and repeated ETP69 injections, as depicted in Table 2. The single injection mice received one injection of ETP69 or DMSO at Day 0. The mice that received a boosted injection received one injection of ETP69 or DMSO at day 0 and one injection at day 9. The mice that received repeated injections received 11 injections of ETP69 or DMSO at day 0 or day 9. Both wildtype and AD model (APP/PS1-transgenic) mice were tested.
# (§5) FIG. 10A-10D depicts the results of the mice on the color mode of the visual stimuli X-maze test. […] FIG. 10E-10F depict the results of the contrast mode of the visual stimuli X-maze test.
# (§6) The effects of ETP69 injections in 14 month old mice was tested. Wildtype mice were divided into 2 treatment groups, mice that received an ETP69 injection (n=10) and mice that received a DMSO injection (N=10). AD+ mice were divided into 2 treatment groups, mice that received an ETP69 injection (n=8) and mice that received a DMSO injection (N=7). The experimental protocol is depicted in FIG. 15.
# Mice were tested for visual-cognitive memory and learning using a visual X maze.
# (§7) 18 month old wildtype and AD+ mice were administered an oral dose of 50 mg/kg ETP69 or oraB once a day for 4 weeks. The experimental protocol is depicted in FIG. 23.
# On day 1, the mice were tested in the open field test as depicted in FIG. 24A. Rearing and total locomotor activity were measured in mice administered oraB and ETP69 (FIG. 24B-24G). On day 2, mice were tested in the color visual-stimuli X-maze. […] On day 3, mice were tested in the contrast visual-stimuli X-maze. Results are depicted in FIG. 26A-26E.
# [4] = tested on: ADtg mice; test: Y-maze test; assay type: in vivo
# [5] = humans; cited from earlier work
# [6] = tested on: AD+ mice; test: Visual stimuli X-maze, contrast mode; assay type: in vivo; conditions: 18 mo, i.p. 10 mg/kg, contrast mode (FIG. 10E-10F)
# Procedure: as §4, §5
# [7] = tested on: BDNF; test: BDNF expression in hippocampus; assay type: in vivo; conditions: dentate gyrus and other hippocampal regions, 18-mo-old AD-Tg mice, single ETP69 injection (FIG. 22)
# Procedure: (§8) Expression of VGF, BDNF, and NCAM was analyzed in 18-month AD+ mice following a single ETP69 injection. Representative images are depicted in FIG. 22.
# [8] = tested on: ADtg mice; test: Open Field-Barnes Maze test; assay type: in vivo
# Procedure: as §3
# The results of the Open Field-Barnes Maze test indicate hippocampal-based spatial learning and memory.
# as §4
# The results of the Open Field Barnes Maze test indicate hippocampal-based spatial memory and learned. […] A comparison of results of single (S), boost (B) and repeated (R) injections is depicted in FIG. 11D-11H.
# as §7
# On days 4-7 mice were tested on the training phase of the Barnes Maze (FIG. 27A). On day 10, mice were tested on the retention phase. On days 11-12, mice were tested on the reversal phase. Results are depicted in FIG. 27B-27E.
# [9] = tested on: H3K9me3; test: H3K9me3 brain staining and quantification; assay type: in vivo, mice
# Excerpt: as §1, with “18 month old AD+ mice brains were stained for neuronal H3K9me3 and DAPI. FIG. 14A” for “FIG. 14A”
# [10] = tested on: proteins related to learning, cognition, conditioning, anxiety; test: Ingenuity analysis of behavioral pathways; parameters: species or system mice; conditions: FIG. 20
# Excerpt: as §2
# [11] = tested on: BDNF pathway; test: Ingenuity pathway analysis of proteome data, BDNF pathway; parameters: species or system mice; conditions: FIG. 19B, p<0.0001
# Excerpt: as §2
# [12] = tested on: GFAP; test: GFAP+ astrogliosis (immunohistochemistry, western blot); assay type: in vivo, mice
# Excerpt: as §1, with “18 month old AD+ mice brains were stained for neuronal H3K9me3 and DAPI. FIG. 14A” for “FIG. 14A”
# [13] = tested on: dendritic spines; test: Golgi-Cox staining of brain sections (dendritic spines); assay type: in vivo, mice
# Procedure: as §3
# […] which bind to proteins in the neuron are randomly formed during the impregnation, then transformed to black mercuric sulfide deposits upon alkali treatment (Ramón-Moliner, 1970; Špaček, 1989; Rosoklija et al., 2014). The architecture of the impregnated neuron, including cell somas, axons, dendrites and spines, could be easily visualized. It is expected that qualitative observations by these measures of brains from ADtg mice treated with ETP69 will show higher spine density as compared to brains of DMSO-injected control ADtg mice. FIG. 7A-7D include Golgi-Cox stain images of whole neurons and their dendritic projections.
# The right brain hemispheres of 18 month old mice were stained with the Golgi-Cox method to detect the cytoarchitecture and morphology of neurons. FIG. 13A depicts representative images of the cingulate cortex of mice administered DMSO or ETP69 and FIG. 13B depicts a representative image of the hippocampal area of a mouse treated with ETP69.
# [14] = tested on: Iba1; test: Iba1 immunohistochemistry; assay type: in vivo; conditions: 14 month old AD+ mice, compared to untreated AD+ mice (FIG. 18E)
# [15] = tested on: cerebral macrophages, microglia, and astrocytes; test: Effects on cerebral inflammatory cells (FIG. 21A-21L); assay type: in vivo; conditions: AD+ mice (FIG. 21A-21L)
# Excerpt: These phagocytic inflammatory cells may be involved in immune activation and clearing toxic Aβ. Restoring a young phenotype may explain reduced neuroinflammation and Aβ plaques in the ETP69 treated AD+ mice.
# [16] = tested on: VGF; test: VGF expression in hippocampus; assay type: in vivo; conditions: dentate gyrus and other hippocampal regions, 18-mo-old AD-Tg mice, single ETP69 injection (FIG. 22)
# Procedure: as §8
# [17] = tested on: ADtg mice; test: Fear conditioning test; assay type: in vivo
# Procedure: as §3
# The results of the fear conditioning test indicate spatial memory.
# as §4, §6
# The fear conditioning test was used to indicate spatial memory.
# [18] = AD+ mice, 18 mo, i.p. 10 mg/kg, color mode (FIG. 10A-10D)
# [19] = ADtg mice, 18 months, injection of 10 mg/kg, compared with vehicle treated mice (FIG. 4A-4J)
# [20] = ADtg mice, 18 months, injection of 10 mg/kg, compared with vehicle treated mice (FIG. 5A-5C)
# [21] = cingulate cortex and hippocampus, 18 month old mice (FIG. 13C-13D)
smiles,measurement,setting,value
"CN1C(=O)[C@@]23C[C@](C)(C#N)[C@H](c4ccc5c(c4)OCO5)N2C(=O)[C@]1(C)SS3 (racemic) [ETP69, Rac-(3S,6S,7S,8aS)-6-(benzo[d][1,3]dioxol-5-yl)-2,3,7-trimethyl-1,4-dioxohexahydro-6H-3,8a-epidithiopyrrolo[1,2-a]pyrazine-7-carbonitrile]",6E10,"[1]; 14 month old AD+ mice, compared to untreated AD+ mice (FIG. 18C)",decrease
same,decrease in the amount of 6E10 amyloid plaques,[1]; brains of 18 month old AD+ mice (FIG. 14E),42%
same,"proteins upregulated, AD+ mice treated with ETP69 compared to untreated AD+ mice","[2]; brains, FIG. 19A","VAV3, CORO2A and HPX"
same,most up-regulated proteins following ETP69 administration,"[2]; whole proteome profiles by mass spectrometry, aged WT and AD+ mice",VGF and HP/HPX
same,alternation,"[3]; 14 month old AD+ mice, ETP69 injection, compared to untreated mice, mode not stated (FIG. 16A-16D)",improvements
same,bidirectional movement,[3]; [18],significant increase
same,percent alternation,[3]; [18],significant increase
same,color bidirectional,[3]; [19],improvements
same,percent spontaneous alternation,[3]; [19],improvements
same,reversing cognitive dysfunction,"[3]; old mice (18 month), oral 50 mg/kg in oraB once a day for 4 weeks, color visual-stimuli X-maze (FIG. 25A-25E)",beneficial effects
same,percent alternation,"[4]; AD+ mice, 18 mo, i.p. 10 mg/kg, vs AD+ DMSO (FIG. 9B)",significant increase
same,percent spontaneous alternation,"[4]; ADtg mice, 18 months, injection of 10 mg/kg ETP69, compared with vehicle treated mice (FIG. 3A-3B)",improvement
same,number of total entries,"[4]; both wildtype and AD+ mice, 18 mo, i.p. 10 mg/kg in DMSO, single/boost/repeated (FIG. 9A), indicates decreased locomotor activity",decreased
same,safety and tolerability,[5],generally safe and tolerable
same,percent alternation,[6],significant increase
same,BDNF expression,[7],Marked increases
same,memory retention,"[8]; AD+ mice, 18 mo, i.p. 10 mg/kg, compared to AD+ mice treated with DMSO (FIG. 11A-11C)",improvement
same,incorrect entries,[8]; [20],fewer
same,latency,[8]; [20],reduced
same,memory retention,[8]; [20],improvement
same,reversal of cognitive deficits,"[8]; old AD-model mice (18 month), oral 50 mg/kg once a day for 4 weeks, Barnes Maze (FIG. 27B-27E)",significant reversal
same,H3K9me3,"[9]; 14 month old AD+ mice, compared to untreated AD+ mice (FIG. 18B)",decrease
same,H3K9me3 staining,"[9]; 18 month old AD+ mice, cortex and hippocampus (FIG. 14C)",significant decrease
same,"proteins related to conditioning, anxiety, and other behaviors",[10],inhibition
same,proteins related to learning and cognition,[10],activation
same,BDNF pathway activation Z-score,[11],2.359
same,GFAP,"[12]; 14 month old AD+ mice, compared to untreated AD+ mice (FIG. 18D)",decrease
same,decrease of GFAP irradiance,"[12]; 18 month old AD+ mice, cingulate cortex (FIG. 14F)",58%
same,association of spine preservation with errors in the Barnes maze test,"[13]; 18 month old mice, correlation (FIG. 13G)",reduced errors
same,ratio of thin spines to all spines,"[13]; AD+ mice, 18 month, compared to AD+ mice administered DMSO alone (FIG. 13E-13F)",significant increase
same,dendritic spines,[13]; [21],increase
same,thin (immature) spines,[13]; [21],increase
same,Iba1,[14],decrease
same,"effects on cerebral macrophages, microglia, and astrocytes",[15],dramatic effects
same,VGF expression,[16],Marked increases
same,freezing time,"[17]; 14 month old AD+ mice, ETP69 injection (FIG. 17A-17B)",increase
same,freezing time,"[17]; AD+ mice, 18 mo, i.p. 10 mg/kg (FIG. 12)",increased
same,freezing time,"[17]; ADtg mice, 18 months, injection of 10 mg/kg (FIG. 6A-6B)",increased

# — US20240009203A1, “COMPOSITIONS AND METHODS FOR TREATING ALZHEIMER'S DISEASE” (Cedars-Sinai Medical Center, priority 2020, published 2024)
